According to ChEMBL document CHEMBL3397011, “A novel molecule with notable activity against multi-drug resistant tuberculosis” (Bioorg Med Chem Lett, 2015):
≈ marks a conversion by molar mass, not a printed value. Calls of active or inactive are those of the source. The calls are words filed in the database; no cut-off is given here.

What was measured:
Format in all cases: functional
[1] = tested on: Mycobacterium tuberculosis; test: (§1) Antimicrobial activity against isoniazid and rifampin resistant Mycobacterium tuberculosis assessed as ratio of MIC combination/MIC compound alone after 21 days at 37 degC in presence of PA-824 by agar dilution drug susceptibility assay
[2] = tested on: Mycobacterium tuberculosis; test: Antimicrobial activity against isoniazid and rifampin resistant Mycobacterium tuberculosis after 21 days at 37 degC by agar dilution drug susceptibility assay
[3] = tested on: Mycobacterium tuberculosis; test: (§2) Antimicrobial activity against isoniazid and rifampin resistant Mycobacterium tuberculosis assessed as reduction in colony forming unit after 21 days at 37 degC in presence of PA-824 by agar dilution drug susceptibility assay; parameters: scale not given: the % may be the effect or the level left
[4] = tested on: Mycobacterium tuberculosis; test: (§3) Antimicrobial activity against isoniazid and rifampin resistant Mycobacterium tuberculosis after 21 days at 37 degC in presence of PA-824 by agar dilution drug susceptibility assay; conditions: 504 h
[5] = tested on: Mycobacterium tuberculosis; test: as §1, with “1-(4-(4-(1H-pyrrol-1-yl)phenyl)piperazin-1-yl)-4-(5-(3,5-difluorobenzyl)-1-(2-fluorobenzyl)-2-oxo-1,2-dihydropyridin-3-yl)-2-hydroxybut-2-ene-1,4-dione” for “PA-824”
[6] = tested on: Mycobacterium tuberculosis; test: as §3, with “1-(4-(4-(1H-pyrrol-1-yl)phenyl)piperazin-1-yl)-4-(5-(3,5-difluorobenzyl)-1-(2-fluorobenzyl)-2-oxo-1,2-dihydropyridin-3-yl)-2-hydroxybut-2-ene-1,4-dione” for “PA-824”
[7] = tested on: Mycobacterium tuberculosis; test: as §2, with “1-(4-(4-(1H-pyrrol-1-yl)phenyl)piperazin-1-yl)-4-(5-(3,5-difluorobenzyl)-1-(2-fluorobenzyl)-2-oxo-1,2-dihydropyridin-3-yl)-2-hydroxybut-2-ene-1,4-dione” for “PA-824”; parameters: scale not given: the % may be the effect or the level left

Structure (SMILES): O=C(/C=C(\O)C(=O)N1CCN(c2ccc(-n3cccc3)cc2)CC1)c1cc(Cc2cc(F)cc(F)c2)cn(Cc2ccccc2F)c1=O
- fractional inhibitory concentration index (FICI) [1]: 0.125
- MIC ([2]; 504 h): 1.56 µg/mL (≈ 2.39 µM)
- Activity [3]: >99%
- MIC [4]: 0.195 µg/mL

Structure (SMILES): O=[N+]([O-])c1cn2c(n1)OC[C@@H](OCc1ccc(OC(F)(F)F)cc1)C2 [PRETOMANID]
- MIC ([2]; 504 h): 0.126 µg/mL (≈ 0.351 µM)
- fractional inhibitory concentration index (FICI) [5]: 0.246
- MIC [6]: 0.031 µg/mL
- Activity [7]: >99%

Structure (SMILES): O=C(/C=C(\O)C(=O)N1CCN(c2ccc(-n3cccn3)cc2)CC1)c1cc(Cc2cc(F)cc(F)c2)cn(Cc2ccccc2F)c1=O
- MIC ([2]; 504 h): 3.12 µg/mL (≈ 4.78 µM)

Structure (SMILES): O=C(/C=C(\O)C(=O)N1CCN(c2ccc(-n3cccc3)cc2)CC1)c1cc(Cc2ccccc2)cn(Cc2ccccc2)c1=O
- MIC ([2]; 504 h): 3.12 µg/mL (≈ 5.22 µM)

Structure (SMILES): O=C(/C=C(\O)C(=O)N1CCN(c2ccc(-n3ccnc3)cc2)CC1)c1cc(Cc2cc(F)cc(F)c2)cn(Cc2ccccc2F)c1=O
- MIC ([2]; 504 h): 6.25 µg/mL (≈ 9.56 µM)

Structure (SMILES): CN[C@@H]1[C@H](O[C@H]2[C@H](O[C@H]3[C@H](O)[C@@H](O)[C@H](N=C(N)N)[C@@H](O)[C@@H]3N=C(N)N)O[C@@H](C)[C@]2(O)C=O)O[C@@H](CO)[C@H](O)[C@H]1O
- MIC [2]: Active
